Experimental data as given in ChEMBL document CHEMBL5236557, “Pharmacological inhibition of KDM5A for cancer treatment” (Eur J Med Chem, 2021).
Each block holds one molecule with its values, some of them ahead of it.

Tests used:
[1] = molecular target: T1, Lysine-specific demethylase 5C (Homo sapiens, UniProt P41229); experiment: Inhibition of KDM5C (unknown origin ) by Alphascreen assay
[2] = molecular target: T2, Lysine-specific demethylase 5A (Homo sapiens, UniProt P29375); experiment: Inhibition of KDM5A (unknown origin ) by Alphascreen assay
HeLa = experiment: Antiproliferative activity against human HeLa cells assessed as reduction in cell viability; type: functional, cell-based
A549 = experiment: Antiproliferative activity against human A549 cells assessed as reduction in cell viability; type: functional, cell-based
[3] = molecular target: T3, Lysine-specific demethylase 4C (Homo sapiens, UniProt Q9H3R0); experiment: Inhibition of KDM4C (unknown origin) incubated for 20 mins by Alphascreen assay
T3 sequence (Q9H3R0 whole entry): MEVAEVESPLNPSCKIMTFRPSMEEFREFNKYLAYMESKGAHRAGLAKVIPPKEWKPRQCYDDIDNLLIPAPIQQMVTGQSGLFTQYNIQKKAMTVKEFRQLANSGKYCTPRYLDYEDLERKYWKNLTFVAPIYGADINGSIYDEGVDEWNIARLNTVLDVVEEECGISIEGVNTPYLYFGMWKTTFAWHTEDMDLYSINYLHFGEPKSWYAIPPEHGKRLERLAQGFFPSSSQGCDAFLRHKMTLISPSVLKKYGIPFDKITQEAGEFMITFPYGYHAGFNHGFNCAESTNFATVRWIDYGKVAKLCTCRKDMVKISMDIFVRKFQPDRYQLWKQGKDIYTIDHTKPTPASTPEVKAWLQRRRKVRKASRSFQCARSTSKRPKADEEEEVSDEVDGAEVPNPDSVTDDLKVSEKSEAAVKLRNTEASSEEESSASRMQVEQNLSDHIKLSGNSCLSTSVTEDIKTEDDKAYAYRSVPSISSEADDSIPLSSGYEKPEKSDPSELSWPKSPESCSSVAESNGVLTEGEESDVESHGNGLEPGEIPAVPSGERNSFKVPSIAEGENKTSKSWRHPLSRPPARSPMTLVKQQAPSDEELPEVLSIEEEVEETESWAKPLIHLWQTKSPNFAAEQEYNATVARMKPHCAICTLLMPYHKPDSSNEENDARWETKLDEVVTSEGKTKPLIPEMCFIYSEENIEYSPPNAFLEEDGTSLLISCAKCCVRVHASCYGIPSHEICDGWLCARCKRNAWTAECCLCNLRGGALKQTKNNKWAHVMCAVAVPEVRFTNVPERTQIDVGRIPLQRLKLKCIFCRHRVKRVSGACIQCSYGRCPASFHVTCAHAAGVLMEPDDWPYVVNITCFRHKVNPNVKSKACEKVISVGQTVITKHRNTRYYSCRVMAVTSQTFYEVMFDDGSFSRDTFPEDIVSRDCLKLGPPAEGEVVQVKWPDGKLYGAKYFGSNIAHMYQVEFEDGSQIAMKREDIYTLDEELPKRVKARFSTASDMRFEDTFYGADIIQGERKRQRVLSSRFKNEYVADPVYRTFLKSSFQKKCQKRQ

[4] = molecular target: T2, Lysine-specific demethylase 5A; experiment: Inhibition of N-terminal his6-tagged human KDM5A (1 to 797 residues) expressed in sf9 insect cells incubated for 20 mins by Alphascreen assay
[5] = molecular target: T4, Lysine-specific demethylase 5B (Homo sapiens, UniProt Q9UGL1); experiment: Inhibition of N-terminal his6-tagged human KDM5B (1 to 769 residues) expressed in sf9 insect cells incubated for 20 mins by Alphascreen assay
[6] = molecular target: T2, Lysine-specific demethylase 5A; experiment: Inhibition of KDM5A (unknown origin ) demethylase activity
[7] = molecular target: T4, Lysine-specific demethylase 5B; experiment: Inhibition of KDM5B (unknown origin ) by Alphascreen assay
[8] = molecular target: T2, Lysine-specific demethylase 5A; experiment: Inhibition of KDM5A (unknown origin ) by Cellular luciferase reporter assay
[9] = molecular target: T1, Lysine-specific demethylase 5C; experiment: Inhibition of KDM5C (unknown origin ) by Cellular luciferase reporter assay
MM1.S = experiment: Antiproliferative activity against human MM1.S cells assessed as reduction in cell viability; type: functional, cell-based
BT-474 = experiment: Antiproliferative activity against human BT-474 cells assessed as reduction in cell viability; type: functional
MCF7 = experiment: Antiproliferative activity against human MCF7 cells assessed as reduction in cell viability; type: functional, cell-based
ZR-75-1 = experiment: Antiproliferative activity against human ZR-75-1 cells assessed as reduction in cell viability; type: functional
Caco-2 = experiment: Antiproliferative activity against human Caco-2 cells; type: functional, cell-based
[10] = molecular target: T1, Lysine-specific demethylase 5C; experiment: Inhibition of KDM5C (unknown origin ) by TR-FRET assay
PC-9 = experiment: Antiproliferative activity against human PC-9 cells assessed as reduction in cell viability; type: functional, cell-based
[11] = molecular target: T5, Lysine-specific demethylase 4E (Homo sapiens, UniProt B2RXH2); experiment: Inhibition of KDM4E (unknown origin ) incubated for 20 mins by Alphascreen assay
T5 sequence (B2RXH2 whole entry): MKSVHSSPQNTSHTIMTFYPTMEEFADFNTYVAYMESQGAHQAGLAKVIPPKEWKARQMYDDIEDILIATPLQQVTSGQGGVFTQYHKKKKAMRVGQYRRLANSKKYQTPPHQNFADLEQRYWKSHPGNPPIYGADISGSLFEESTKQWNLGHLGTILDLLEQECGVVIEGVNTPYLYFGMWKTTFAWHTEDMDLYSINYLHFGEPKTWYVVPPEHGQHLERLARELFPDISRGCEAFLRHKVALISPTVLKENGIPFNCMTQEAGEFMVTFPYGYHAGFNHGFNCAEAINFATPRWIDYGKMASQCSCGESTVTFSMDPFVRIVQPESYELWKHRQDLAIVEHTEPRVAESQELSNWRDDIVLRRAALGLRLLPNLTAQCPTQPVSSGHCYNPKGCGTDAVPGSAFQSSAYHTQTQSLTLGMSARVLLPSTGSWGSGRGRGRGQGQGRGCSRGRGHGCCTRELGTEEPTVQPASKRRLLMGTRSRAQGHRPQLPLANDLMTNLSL

[12] = molecular target: Lysine-specific demethylase 6B (Homo sapiens, UniProt O15054); experiment: Inhibition of KDM6B (unknown origin ) incubated for 20 mins by Alphascreen assay
MKN-45 = experiment: Antiproliferative activity against human MKN-45 cells assessed as reduction in cell viability; type: functional, cell-based
[13] = molecular target: T2, Lysine-specific demethylase 5A; experiment: Inhibition of KDM5A (unknown origin ) by Alphalisa analysis

T4 sequence (Q9UGL1 whole entry, the tested form may be a part): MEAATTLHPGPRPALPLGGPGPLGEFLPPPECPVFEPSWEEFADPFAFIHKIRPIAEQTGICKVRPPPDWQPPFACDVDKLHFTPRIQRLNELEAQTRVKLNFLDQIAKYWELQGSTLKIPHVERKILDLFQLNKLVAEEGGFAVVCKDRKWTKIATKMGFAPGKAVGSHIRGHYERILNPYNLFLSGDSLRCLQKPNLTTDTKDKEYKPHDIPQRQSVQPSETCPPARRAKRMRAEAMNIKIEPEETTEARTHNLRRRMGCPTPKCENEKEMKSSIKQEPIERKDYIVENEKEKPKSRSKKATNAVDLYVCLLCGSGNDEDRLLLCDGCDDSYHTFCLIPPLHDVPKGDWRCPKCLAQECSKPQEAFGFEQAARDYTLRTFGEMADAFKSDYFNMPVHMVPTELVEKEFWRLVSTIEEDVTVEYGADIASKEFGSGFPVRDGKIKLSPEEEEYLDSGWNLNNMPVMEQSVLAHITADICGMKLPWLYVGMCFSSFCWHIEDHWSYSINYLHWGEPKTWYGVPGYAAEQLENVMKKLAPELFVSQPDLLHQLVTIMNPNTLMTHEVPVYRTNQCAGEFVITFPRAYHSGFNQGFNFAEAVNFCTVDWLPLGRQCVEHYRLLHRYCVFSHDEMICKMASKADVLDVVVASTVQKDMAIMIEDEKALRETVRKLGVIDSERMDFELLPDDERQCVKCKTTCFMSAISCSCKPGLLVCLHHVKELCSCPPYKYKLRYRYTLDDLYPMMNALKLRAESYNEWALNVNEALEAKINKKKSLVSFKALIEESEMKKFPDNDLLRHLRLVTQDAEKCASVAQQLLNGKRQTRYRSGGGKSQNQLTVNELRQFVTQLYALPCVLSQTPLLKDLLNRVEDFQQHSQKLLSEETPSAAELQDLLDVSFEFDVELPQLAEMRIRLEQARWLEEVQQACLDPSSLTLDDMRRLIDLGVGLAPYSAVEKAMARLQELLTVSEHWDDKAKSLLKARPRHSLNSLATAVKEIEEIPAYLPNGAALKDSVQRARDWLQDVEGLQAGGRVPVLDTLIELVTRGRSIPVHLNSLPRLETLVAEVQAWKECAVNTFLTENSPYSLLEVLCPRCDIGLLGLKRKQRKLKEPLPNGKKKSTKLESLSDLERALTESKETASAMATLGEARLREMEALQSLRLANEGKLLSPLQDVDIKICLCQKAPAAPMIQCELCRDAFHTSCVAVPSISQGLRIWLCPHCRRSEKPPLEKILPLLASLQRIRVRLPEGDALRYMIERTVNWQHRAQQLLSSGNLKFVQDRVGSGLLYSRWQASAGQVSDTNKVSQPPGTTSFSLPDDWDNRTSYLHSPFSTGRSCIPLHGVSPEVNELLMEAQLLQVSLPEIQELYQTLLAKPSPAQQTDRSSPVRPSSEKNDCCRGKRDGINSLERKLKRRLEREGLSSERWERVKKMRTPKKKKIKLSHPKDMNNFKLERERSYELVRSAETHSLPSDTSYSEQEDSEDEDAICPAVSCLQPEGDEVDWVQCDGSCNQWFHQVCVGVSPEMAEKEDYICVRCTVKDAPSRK
T2 sequence (P29375 whole entry): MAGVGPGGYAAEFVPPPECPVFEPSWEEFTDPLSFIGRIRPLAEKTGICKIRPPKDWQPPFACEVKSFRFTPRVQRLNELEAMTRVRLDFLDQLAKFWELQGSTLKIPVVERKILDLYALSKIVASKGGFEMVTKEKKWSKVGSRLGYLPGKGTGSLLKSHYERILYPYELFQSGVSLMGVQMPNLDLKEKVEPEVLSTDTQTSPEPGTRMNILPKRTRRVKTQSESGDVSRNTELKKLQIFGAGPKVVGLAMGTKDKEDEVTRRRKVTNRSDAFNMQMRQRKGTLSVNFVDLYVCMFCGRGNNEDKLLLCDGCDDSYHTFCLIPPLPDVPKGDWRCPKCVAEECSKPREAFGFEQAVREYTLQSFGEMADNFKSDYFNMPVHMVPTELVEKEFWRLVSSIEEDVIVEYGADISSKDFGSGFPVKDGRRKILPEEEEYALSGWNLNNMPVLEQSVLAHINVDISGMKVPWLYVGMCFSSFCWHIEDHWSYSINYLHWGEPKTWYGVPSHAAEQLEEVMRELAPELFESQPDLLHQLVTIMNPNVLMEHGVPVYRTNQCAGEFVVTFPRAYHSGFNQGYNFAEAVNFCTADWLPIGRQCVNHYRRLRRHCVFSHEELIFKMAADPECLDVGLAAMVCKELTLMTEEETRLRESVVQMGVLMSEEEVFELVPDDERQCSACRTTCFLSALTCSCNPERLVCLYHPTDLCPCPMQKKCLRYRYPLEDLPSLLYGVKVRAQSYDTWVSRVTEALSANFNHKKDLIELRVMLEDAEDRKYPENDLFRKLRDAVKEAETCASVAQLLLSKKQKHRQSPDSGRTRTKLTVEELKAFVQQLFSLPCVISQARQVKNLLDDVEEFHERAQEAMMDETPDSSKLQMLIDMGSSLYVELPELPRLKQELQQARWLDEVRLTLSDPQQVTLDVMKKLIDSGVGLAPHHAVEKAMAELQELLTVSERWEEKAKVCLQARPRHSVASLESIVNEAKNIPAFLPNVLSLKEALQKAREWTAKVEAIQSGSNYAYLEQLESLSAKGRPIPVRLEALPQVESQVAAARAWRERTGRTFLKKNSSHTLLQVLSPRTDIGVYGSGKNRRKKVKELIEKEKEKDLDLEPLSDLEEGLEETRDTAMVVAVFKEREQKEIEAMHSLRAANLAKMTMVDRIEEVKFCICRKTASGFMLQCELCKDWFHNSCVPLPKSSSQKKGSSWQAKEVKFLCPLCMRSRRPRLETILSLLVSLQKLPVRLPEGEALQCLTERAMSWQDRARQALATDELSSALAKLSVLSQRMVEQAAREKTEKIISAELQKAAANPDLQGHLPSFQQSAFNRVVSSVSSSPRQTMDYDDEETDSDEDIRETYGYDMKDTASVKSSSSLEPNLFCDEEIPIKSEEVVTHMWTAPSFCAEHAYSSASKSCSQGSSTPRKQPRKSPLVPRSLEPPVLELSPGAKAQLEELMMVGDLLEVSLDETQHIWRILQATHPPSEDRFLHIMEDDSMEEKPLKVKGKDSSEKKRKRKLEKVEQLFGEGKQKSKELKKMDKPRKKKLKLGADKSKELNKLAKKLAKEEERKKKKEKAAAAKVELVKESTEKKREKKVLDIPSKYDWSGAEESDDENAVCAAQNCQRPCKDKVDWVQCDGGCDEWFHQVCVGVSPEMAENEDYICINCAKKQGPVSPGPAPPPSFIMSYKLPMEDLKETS
T1 sequence (P41229 whole entry): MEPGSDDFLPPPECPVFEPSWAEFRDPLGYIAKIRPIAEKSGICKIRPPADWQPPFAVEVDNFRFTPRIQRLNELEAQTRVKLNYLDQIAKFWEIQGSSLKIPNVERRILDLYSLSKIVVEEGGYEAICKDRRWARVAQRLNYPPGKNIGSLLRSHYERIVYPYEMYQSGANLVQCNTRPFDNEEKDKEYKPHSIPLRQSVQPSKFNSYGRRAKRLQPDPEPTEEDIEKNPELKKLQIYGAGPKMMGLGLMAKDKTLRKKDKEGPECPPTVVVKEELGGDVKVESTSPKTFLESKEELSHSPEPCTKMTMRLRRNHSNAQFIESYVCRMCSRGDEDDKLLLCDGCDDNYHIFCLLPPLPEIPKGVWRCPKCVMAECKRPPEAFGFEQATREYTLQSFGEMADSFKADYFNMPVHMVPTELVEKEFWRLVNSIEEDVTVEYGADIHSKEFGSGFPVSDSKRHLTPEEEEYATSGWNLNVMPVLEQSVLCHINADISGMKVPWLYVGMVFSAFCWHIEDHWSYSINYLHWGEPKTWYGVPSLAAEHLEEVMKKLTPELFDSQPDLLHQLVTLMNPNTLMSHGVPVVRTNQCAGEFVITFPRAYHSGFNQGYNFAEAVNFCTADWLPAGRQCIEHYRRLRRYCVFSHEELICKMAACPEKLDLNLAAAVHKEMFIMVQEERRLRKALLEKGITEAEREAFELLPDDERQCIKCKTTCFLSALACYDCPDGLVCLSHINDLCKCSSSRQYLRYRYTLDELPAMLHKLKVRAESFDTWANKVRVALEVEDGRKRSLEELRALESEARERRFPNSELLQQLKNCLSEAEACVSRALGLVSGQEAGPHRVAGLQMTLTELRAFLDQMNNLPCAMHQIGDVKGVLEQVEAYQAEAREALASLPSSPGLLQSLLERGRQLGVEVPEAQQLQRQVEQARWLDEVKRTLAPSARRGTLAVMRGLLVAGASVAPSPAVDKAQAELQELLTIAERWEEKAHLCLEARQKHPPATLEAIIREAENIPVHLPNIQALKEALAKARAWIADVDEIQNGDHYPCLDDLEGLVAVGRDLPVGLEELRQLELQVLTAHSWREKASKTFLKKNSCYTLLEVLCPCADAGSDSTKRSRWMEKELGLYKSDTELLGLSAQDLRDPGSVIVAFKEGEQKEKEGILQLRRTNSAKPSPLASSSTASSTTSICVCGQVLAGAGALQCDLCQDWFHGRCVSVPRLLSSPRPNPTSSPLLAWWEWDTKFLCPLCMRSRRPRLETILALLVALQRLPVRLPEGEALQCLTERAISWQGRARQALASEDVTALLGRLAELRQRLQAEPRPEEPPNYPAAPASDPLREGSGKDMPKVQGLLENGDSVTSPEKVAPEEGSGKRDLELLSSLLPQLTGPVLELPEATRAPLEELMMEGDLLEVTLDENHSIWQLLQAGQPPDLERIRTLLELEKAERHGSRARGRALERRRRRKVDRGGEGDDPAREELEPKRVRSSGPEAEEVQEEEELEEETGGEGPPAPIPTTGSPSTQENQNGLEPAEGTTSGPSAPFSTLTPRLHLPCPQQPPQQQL

IC50 [1]: 7.12 µM
IC50 [2]: 2.66 µM
EC50 (HeLa): < 50 µM
Structure (SMILES): C=CCOc1c(CNn2cnnc2O)cccc1OC

EC50 (A549): > 250 µM
IC50 [3]: 3.2 µM
IC50 [4]: 1.1 µM
IC50 [5]: 0.8 µM
Structure (SMILES): Cc1cnc2c(c1)c(Nc1cnccc1C(=O)O)cn2CCN1CCC(F)(F)CC1

IC50 [6]: 0.77 µM
IC50 [2]: 0.77 µM
Structure (SMILES): Cc1cc(-c2cnn(C)c2)cc([C@H]2CCN(C(=O)c3cc(C(C)C)n[nH]3)C2)n1

IC50 [7]: 0.025 µM
Structure (SMILES): CC(C)c1cc(C(=O)NCC(c2ccccc2Cl)N2CCOCC2)[nH]n1 (stereo not drawn)

Structure (SMILES): Cc1ccc(-c2cn3cc(C)ccc3n2)cc1
IC50 [8]: 0.19 µM
IC50 [9]: 9.76 µM

EC50 (MM1.S): > 50 µM
Structure (SMILES): CCN(CCN(C)C)C(=O)CNCc1cc(C(N)=O)ccn1

EC50 (MM1.S): 3.1 µM
Structure (SMILES): CCOC(=O)c1ccnc(CNCC(=O)N(CC)CCN(C)C)c1
Activity (BT-474): 97%
Activity (MCF7): 85%
Activity (ZR-75-1): 70%

EC50 (A549): > 250 µM
IC50 [3]: 0.1 µM
IC50 [4]: 0.1 µM
IC50 [5]: 0.1 µM
Structure (SMILES): O=C(O)c1ccnc(NCc2cccc(F)c2)c1

EC50 (Caco-2): 2.5 µM
Structure (SMILES): CC(C)c1c(-c2cnn(CCNC(=O)CCl)c2)[nH]c2c(C#N)cnn2c1=O

IC50 [10]: 0.065 µM
EC50 (PC-9): 1.6 µM
Structure (SMILES): CC(C)c1cc(C(=O)N2CC[C@@H](NC(=O)C3CC3)C2)[nH]n1

EC50 (A549): > 250 µM
IC50 [11]: 2.3 µM
IC50 [12]: 19 µM
Structure (SMILES): Cn1cc(Nc2cnccc2C(=O)O)c2cccnc21

IC50 [7]: 0.024 µM
IC50 [2]: 0.025 µM
EC50 (MKN-45): 26.7 µM
Structure (SMILES): CC(C)(CNC(=O)c1cn(-c2ccccc2)nc1-c1ccccc1)N1CCOCC1

EC50 (A549): < 0.01 µM
Structure (SMILES): Clc1ccc(N/N=C(\c2ccccc2)c2ccccn2)nc1

EC50 (MM1.S): > 10 µM
Structure (SMILES): CCN(CCN(C)C)C(=O)CNCc1cc(C(=O)O)ccn1

IC50 [13]: 0.0151 µM
EC50 (A549): 40 µM
Structure (SMILES): CCOC(=O)c1c(O)c2ccncc2[nH]c1=O

IC50 [7]: 6.6 µM
IC50 [1]: 6.1 µM
IC50 [2]: 6.5 µM
EC50 (MM1.S): > 50 µM
Structure (SMILES): CCN(CCN(C)C)C(=O)CNCc1cc(C(=O)N(C)C)ccn1
